# Test results published in patent US6761919B2, “Ambient stable beverage” (priority 2000, dated 2004).
# What was measured:
# Type in all cases: cell-based
# [1] = system: yeast Saccharomyces cerevisiae X2180-1B; assay: Growth of yeast in matrix of tubes of Ready to Drink tea (0.14% tea) with preservatives and essential oil component, OD 600 nm at 14 days; conditions: RTD tea pH 3.4, cinnamic acid 1-175 ppm, 14 days 25° C.; for tubes supporting yeast growth compared with control without essential oil (FIG. 13): benzoic acid 1-250 ppm; for tubes supporting yeast growth compared with control without essential oil (FIG. 1): sorbic acid 1-250 ppm; for tubes supporting yeast growth compared with control without essential oil (FIG. 19): sorbic acid+benzoic acid 1:1 1-250 ppm
# Method: (§1) The matrix of 30 ml tubes each contained 10 ml RTD tea, pH 3.4. […] Tubes were inoculated with 10^4 cells of the yeast Saccharomyces cerevisiae X2180-1B. Tubes were then incubated for 14 days at 25° C. to allow surviving yeasts to grow out. At 14 days growth was measured by optical density at 600 nm in x11 diluted samples, and blank values subtracted.
# as §1, with “containing” for “contained”, “tea” for “tea,”, “3.4, all contained 100 ppm citral dimethyl acetal.” for “3.4.”, “were” for “were then”
# as §1, with “containing” for “contained”, “tea” for “tea,”, “3.4, all contained 100 ppm cumic alcohol.” for “3.4.”, “were” for “were then”
# as §1, with “containing” for “contained”, “tea” for “tea,”, “3.4, all contained 100 ppm citral.” for “3.4.”, “were” for “were then”
# as §1, with “containing” for “contained”, “tea” for “tea,”, “3.4, all contained 50 ppm 3,7-dimethyl octanol.” for “3.4.”, “were” for “were then”
# as §1, with “containing” for “contained”, “tea” for “tea,”, “3.4, all contained 100 ppm myrtenol.” for “3.4.”, “were” for “were then”
# as §1, with “containing” for “contained”, “tea” for “tea,”, “3.4, all contained 100 ppm piperonyl acetate.” for “3.4.”, “were” for “were then”
# as §1, with “containing” for “contained”, “tea” for “tea,”, “3.4, all contained 15 ppm trans, trans-2,4-decadienal.” for “3.4.”, “were” for “were then”
# as §1, with “containing” for “contained”, “tea” for “tea,”, “3.4, all contained 100 ppm δ-decanolactone.” for “3.4.”, “were” for “were then”
# as §1, with “containing” for “contained”, “tea” for “tea,”, “3.4, all contained 25 ppm citral dimethyl acetal and 35 ppm cumic alcohol.” for “3.4.”, “were” for “were then”
# The matrix of 30 ml tubes each contained 10 ml RTD tea, pH 3.4. […]
# [2] = system: yeast Saccharomyces cerevisiae X2180-1B; assay: Growth of yeast in matrix of tubes of synthetic soft drink (0% tea) with preservatives and essential oil component, OD 600 nm at 14 days; conditions: synthetic soft drink pH 3.4, 100 ppm essential oil component, cinnamic acid 1-175 ppm, 14 days 25° C.
# Method: (§2) Synthetic soft drink contained glucose, 8%w/v, citric acid 3 g/l, potassium orthophosphate 1 g/l, magnesium chloride 0.1 g/l and yeast extract 0.1 g/l. The matrix of 30 ml tubes each contained 10 ml synthetic soft drink, pH 3.4. Sorbic acid was used in the range 1-250 ppm and cinnamic acid in the range 1-175 ppm. Tubes were inoculated with 10^4 cells of the yeast Saccharomyces cerevisiae X2180-1B. Tubes were then incubated for 14 days at 25° C. to allow surviving yeasts to grow out. At 14 days growth was measured by optical density at 600 nm in x11 diluted samples, and blank values subtracted.
# as §2, with “each containing” for “each contained”, “soft drink” for “soft drink,”, “pH 3.4, all contained 100 ppm citral dimethyl acetal.” for “pH 3.4.”, “were” for “were then”
# Synthetic soft drink contained glucose, 8%w/v, citric acid 3 g/l, potassium orthophosphate 1 g/l, magnesium chloride 0.1 g/l and yeast extract 0.1 g/l. The matrix of 30 ml tubes each contained 10 ml synthetic soft drink, pH 3.4. […] At 14 days growth was measured by optical density at 600 nm in x11 diluted samples, and blank values subtracted.
# Synthetic soft drink contained glucose, 8%w/v, citric acid 3 g/l, potassium orthophosphate 1 g/l, magnesium chloride 0.1 g/l and yeast extract 0.1 g/l. […] At 14 days growth was measured by optical density at 600 nm in x11 diluted samples, and blank values subtracted.
# Synthetic soft drink contained glucose, 8%w/v, citric acid 3 g/l, potassium orthophosphate 1 g/l, magnesium chloride 0.1 g/l and yeast extract 0.1 g/l. […] At 14 days growth was measured by optical density at 600 nm in x11 diluted samples, and blank values subtracted. […]
# [3] = system: spoilage mould Aspergillus niger POL10; assay: Growth of spoilage mould in RTD tea with preservatives and increasing citral dimethyl acetal, visual at 28 days; conditions: RTD tea pH 3.1, 0.14% tea; sorbic acid 200 ppm, cinnamic acid 60 ppm, EDTA 30 ppm; 10^4 conidiaspores; 28 days 25° C.; tested 1-400 ppm
# Method: Growth of spoilage mould Aspergillus niger POL10 in 30 ml tubes each contained 10 ml RTD tea, pH 3.1, 0.14% tea. All tubes containing sorbic acid 200 ppm, cinnamic acid 60 ppm, EDTA 30 ppm. An essential oil component, citral dimethyl acetal, was added in increasing concentration to tubes, in the range 1-400 ppm. Tubes were inoculated with 10^4 conidiaspores of the mould Aspergillus niger POL10. Tubes were then incubated for 28 days at 25° C. to allow moulds to grow out. At 28 days growth was measured visually. Mould growth was visible in all tubes, excepting those containing >80 ppm citral dimethyl acetal.
# fungi = conditions: Table I, preferred essential oils
# [4] = 100 ppm essential oil component
smiles,measurement,setting,value
"CC(C)CCCC(C)CCO (stereo not shown) [3,7-Dimethyl-1-octanol]",tubes supporting yeast growth compared with control without essential oil (FIG. 13),[1]; 50 ppm essential oil component,very substantially fewer tubes supporting yeast growth
same,tubes supporting yeast growth compared with control without essential oil (FIG. 1),[1]; 50 ppm essential oil component,very substantially fewer tubes supporting yeast growth
same,tubes supporting yeast growth compared with control without essential oil (FIG. 19),[1]; 50 ppm essential oil component,very substantially fewer tubes supporting yeast growth
COC(C=C(C)CCC=C(C)C)OC [Citral dimethyl acetal],tubes supporting yeast growth compared with control without essential oil (FIG. 17),[2]; benzoic acid 1-250 ppm,very substantially fewer tubes supporting yeast growth
same,tubes supporting yeast growth compared with control without essential oil (FIG. 11),[2]; sorbic acid 1-250 ppm,very substantially fewer tubes supporting yeast growth
same,tubes supporting yeast growth compared with control without essential oil (FIG. 23),[2]; sorbic acid+benzoic acid 1:1 1-250 ppm,very substantially fewer tubes supporting yeast growth
same,tubes supporting yeast growth compared with control without essential oil (FIG. 13),[1]; [4],very substantially fewer tubes supporting yeast growth
same,tubes supporting yeast growth compared with control without essential oil (FIG. 1),[1]; [4],very substantially fewer tubes supporting yeast growth
same,tubes supporting yeast growth compared with control without essential oil (FIG. 19),[1]; [4],very substantially fewer tubes supporting yeast growth
same,concentration at which no mould growth was visible,[3],> 80 ppm
CC(C)=CCCC(C)=CC=O [Citral],tubes supporting yeast growth compared with control without essential oil (FIG. 1),[1]; [4],very substantially fewer tubes supporting yeast growth
CC(C)c1ccc(CO)cc1 [Cumic alcohol],tubes supporting yeast growth compared with control without essential oil (FIG. 1),[1]; [4],very substantially fewer tubes supporting yeast growth
CC1(C)C2CC=C(CO)C1C2 (stereo not shown) [Myrtenol],tubes supporting yeast growth compared with control without essential oil (FIG. 1),[1]; [4],very substantially fewer tubes supporting yeast growth
CCCCCCCC(=O)O [Octanoic acid (caprylic)],MIC (ppm),fungi,115 ppm
CC(=O)OCc1ccc2c(c1)OCO2 [Piperonyl acetate],tubes supporting yeast growth compared with control without essential oil (FIG. 1),[1]; [4],very substantially fewer tubes supporting yeast growth
"CCCCC/C=C/C=C/C=O [trans,trans-2,4-Decadienal]",tubes supporting yeast growth compared with control without essential oil (FIG. 1),[1]; 15 ppm essential oil component,very substantially fewer tubes supporting yeast growth
